Tests used:
Metformin + Luminespib = compound: CN(C)C(=N)NC(=N)N [Metformin] + CCNC(=O)c1noc(-c2cc(C(C)C)c(O)cc2O)c1-c1ccc(CN2CCOCC2)cc1 [Luminespib] (partner 0.01 µM); experiment: relative viability (nuclei count vs DMSO), 5 days (fraction); higher = more cells survive
Method in brief: (§1)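 One day after seeding in 1536-well plates, lung cancer cell lines were dosed by pin tool. Dosing was either single-drug or a fixed anchor-drug dose plus five library-drug doses (not always all listed) in √10 steps. After 5 days, nuclei were stained in one fix-and-stain step and counted on 4× images, and relative viability is the nuclei count of treated wells over that of vehicle wells, given as the median of duplicate plates.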

Metformin + Dasatinib = compound: CN(C)C(=N)NC(=N)N [Metformin] + Cc1nc(Nc2ncc(C(=O)Nc3c(C)cccc3Cl)s2)cc(N2CCN(CCO)CC2)n1 [Dasatinib] (partner 0.075 µM); experiment: as above
Method in brief: as §1

Cell Line: NCI-H1623
- relative viability (Metformin + Luminespib; first compound 10 µM): 0.475
- relative viability (Metformin + Luminespib; first compound 31.62 µM): 0.429
- relative viability (Metformin + Luminespib; first compound 100 µM): 0.596
- relative viability (Metformin + Luminespib; first compound 316.23 µM): 0.487
- relative viability (Metformin + Luminespib; first compound 1000 µM): 0.755
- relative viability (Metformin + Dasatinib; first compound 10 µM): 0.376
- relative viability (Metformin + Dasatinib; first compound 31.62 µM): 0.518
- relative viability (Metformin + Dasatinib; first compound 100 µM): 0.511
- relative viability (Metformin + Dasatinib; first compound 316.23 µM): 0.627
- relative viability (Metformin + Dasatinib; first compound 1000 µM): 0.478

Cell Line: HCC-15
- relative viability (Metformin + Luminespib; first compound 31.62 µM): 0.235
- relative viability (Metformin + Luminespib; first compound 100 µM): 0.348
- relative viability (Metformin + Luminespib; first compound 316.23 µM): 0.35
- relative viability (Metformin + Luminespib; first compound 1000 µM): 0.321
- relative viability (Metformin + Dasatinib; first compound 31.62 µM): 0.625
- relative viability (Metformin + Dasatinib; first compound 100 µM): 0.581
- relative viability (Metformin + Dasatinib; first compound 316.23 µM): 0.556
- relative viability (Metformin + Dasatinib; first compound 1000 µM): 0.584

Cell Line: NCI-H441
- relative viability (Metformin + Luminespib; first compound 31.62 µM): 0.241
- relative viability (Metformin + Luminespib; first compound 100 µM): 0.336
- relative viability (Metformin + Luminespib; first compound 316.23 µM): 0.28
- relative viability (Metformin + Luminespib; first compound 1000 µM): 0.373
- relative viability (Metformin + Dasatinib; first compound 31.62 µM): 0.577
- relative viability (Metformin + Dasatinib; first compound 100 µM): 0.609
- relative viability (Metformin + Dasatinib; first compound 316.23 µM): 0.385
- relative viability (Metformin + Dasatinib; first compound 1000 µM): 0.544

Cell Line: NCI-H1993
- relative viability (Metformin + Luminespib; first compound 10 µM): 0.994
- relative viability (Metformin + Luminespib; first compound 31.62 µM): 1.09
- relative viability (Metformin + Luminespib; first compound 100 µM): 0.713
- relative viability (Metformin + Luminespib; first compound 316.23 µM): 0.856
- relative viability (Metformin + Luminespib; first compound 1000 µM): 0.934
- relative viability (Metformin + Dasatinib; first compound 10 µM): 0.764
- relative viability (Metformin + Dasatinib; first compound 31.62 µM): 0.59
- relative viability (Metformin + Dasatinib; first compound 100 µM): 0.665
- relative viability (Metformin + Dasatinib; first compound 316.23 µM): 0.639
- relative viability (Metformin + Dasatinib; first compound 1000 µM): 0.703

Cell Line: NCI-H1915
- relative viability (Metformin + Luminespib; first compound 31.62 µM): 0.724
- relative viability (Metformin + Luminespib; first compound 100 µM): 0.835
- relative viability (Metformin + Luminespib; first compound 316.23 µM): 0.785
- relative viability (Metformin + Luminespib; first compound 1000 µM): 0.795
- relative viability (Metformin + Dasatinib; first compound 31.62 µM): 0.34
- relative viability (Metformin + Dasatinib; first compound 100 µM): 0.346
- relative viability (Metformin + Dasatinib; first compound 316.23 µM): 0.335
- relative viability (Metformin + Dasatinib; first compound 1000 µM): 0.355

Cell Line: ABC-1
- relative viability (Metformin + Luminespib; first compound 10 µM): 0.481
- relative viability (Metformin + Luminespib; first compound 31.62 µM): 0.694
- relative viability (Metformin + Luminespib; first compound 100 µM): 0.883
- relative viability (Metformin + Luminespib; first compound 316.23 µM): 0.306
- relative viability (Metformin + Luminespib; first compound 1000 µM): 0.371
- relative viability (Metformin + Dasatinib; first compound 10 µM): 0.414
- relative viability (Metformin + Dasatinib; first compound 31.62 µM): 0.73
- relative viability (Metformin + Dasatinib; first compound 100 µM): 0.659
- relative viability (Metformin + Dasatinib; first compound 316.23 µM): 0.316
- relative viability (Metformin + Dasatinib; first compound 1000 µM): 0.31

Cell Line: NCI-H2087
- relative viability (Metformin + Luminespib; first compound 31.62 µM): 0.293
- relative viability (Metformin + Luminespib; first compound 100 µM): 0.225
- relative viability (Metformin + Luminespib; first compound 316.23 µM): 0.223
- relative viability (Metformin + Luminespib; first compound 1000 µM): 0.157
- relative viability (Metformin + Dasatinib; first compound 31.62 µM): 0.933
- relative viability (Metformin + Dasatinib; first compound 100 µM): 0.891
- relative viability (Metformin + Dasatinib; first compound 316.23 µM): 0.676
- relative viability (Metformin + Dasatinib; first compound 1000 µM): 0.693

Cell Line: NCI-H1755
- relative viability (Metformin + Luminespib; first compound 10 µM): 0.504
- relative viability (Metformin + Luminespib; first compound 31.62 µM): 0.565
- relative viability (Metformin + Luminespib; first compound 100 µM): 0.475
- relative viability (Metformin + Luminespib; first compound 316.23 µM): 0.419
- relative viability (Metformin + Luminespib; first compound 1000 µM): 0.418
- relative viability (Metformin + Dasatinib; first compound 10 µM): 0.422
- relative viability (Metformin + Dasatinib; first compound 31.62 µM): 0.332
- relative viability (Metformin + Dasatinib; first compound 100 µM): 0.433
- relative viability (Metformin + Dasatinib; first compound 316.23 µM): 0.36
- relative viability (Metformin + Dasatinib; first compound 1000 µM): 0.417

Cell Line: HCC-366
- relative viability (Metformin + Dasatinib; first compound 10 µM): 0.565
- relative viability (Metformin + Dasatinib; first compound 31.62 µM): 0.566
- relative viability (Metformin + Dasatinib; first compound 100 µM): 0.632
- relative viability (Metformin + Dasatinib; first compound 316.23 µM): 0.568
- relative viability (Metformin + Dasatinib; first compound 1000 µM): 0.81

Cell Line: NCI-H2170
- relative viability (Metformin + Luminespib; first compound 10 µM): 0.571
- relative viability (Metformin + Luminespib; first compound 31.62 µM): 0.677
- relative viability (Metformin + Luminespib; first compound 100 µM): 0.766
- relative viability (Metformin + Luminespib; first compound 316.23 µM): 0.68
- relative viability (Metformin + Luminespib; first compound 1000 µM): 0.632
- relative viability (Metformin + Dasatinib; first compound 10 µM): 0.514
- relative viability (Metformin + Dasatinib; first compound 31.62 µM): 0.625
- relative viability (Metformin + Dasatinib; first compound 100 µM): 0.619
- relative viability (Metformin + Dasatinib; first compound 316.23 µM): 0.664
- relative viability (Metformin + Dasatinib; first compound 1000 µM): 0.634

Cell Line: NCI-H1792
- relative viability (Metformin + Luminespib; first compound 10 µM): 0.599
- relative viability (Metformin + Luminespib; first compound 31.62 µM): 0.57
- relative viability (Metformin + Luminespib; first compound 100 µM): 0.789
- relative viability (Metformin + Luminespib; first compound 316.23 µM): 0.418
- relative viability (Metformin + Luminespib; first compound 1000 µM): 0.485
- relative viability (Metformin + Dasatinib; first compound 31.62 µM): 1.05
- relative viability (Metformin + Dasatinib; first compound 100 µM): 0.982
- relative viability (Metformin + Dasatinib; first compound 316.23 µM): 0.754
- relative viability (Metformin + Dasatinib; first compound 1000 µM): 0.756

Cell Line: SW 1573
- relative viability (Metformin + Luminespib; first compound 10 µM): 0.266
- relative viability (Metformin + Luminespib; first compound 31.62 µM): 0.255
- relative viability (Metformin + Luminespib; first compound 100 µM): 0.51
- relative viability (Metformin + Luminespib; first compound 316.23 µM): 0.157
- relative viability (Metformin + Luminespib; first compound 1000 µM): 0.153
- relative viability (Metformin + Dasatinib; first compound 10 µM): 0.589
- relative viability (Metformin + Dasatinib; first compound 31.62 µM): 0.833
- relative viability (Metformin + Dasatinib; first compound 100 µM): 0.708
- relative viability (Metformin + Dasatinib; first compound 316.23 µM): 0.425
- relative viability (Metformin + Dasatinib; first compound 1000 µM): 0.551

Cell Line: HCC-827
- relative viability (Metformin + Luminespib; first compound 31.62 µM): 0.843
- relative viability (Metformin + Luminespib; first compound 100 µM): 0.843
- relative viability (Metformin + Luminespib; first compound 316.23 µM): 0.524
- relative viability (Metformin + Luminespib; first compound 1000 µM): 0.736
- relative viability (Metformin + Dasatinib; first compound 31.62 µM): 0.317
- relative viability (Metformin + Dasatinib; first compound 100 µM): 0.356
- relative viability (Metformin + Dasatinib; first compound 316.23 µM): 0.317
- relative viability (Metformin + Dasatinib; first compound 1000 µM): 0.316

Cell Line: NCI-H358
- relative viability (Metformin + Luminespib; first compound 10 µM): 0.575
- relative viability (Metformin + Luminespib; first compound 31.62 µM): 0.677
- relative viability (Metformin + Luminespib; first compound 100 µM): 0.555
- relative viability (Metformin + Luminespib; first compound 316.23 µM): 0.211
- relative viability (Metformin + Luminespib; first compound 1000 µM): 0.364
- relative viability (Metformin + Dasatinib; first compound 10 µM): 0.143
- relative viability (Metformin + Dasatinib; first compound 31.62 µM): 0.127
- relative viability (Metformin + Dasatinib; first compound 100 µM): 0.118
- relative viability (Metformin + Dasatinib; first compound 316.23 µM): 0.212
- relative viability (Metformin + Dasatinib; first compound 1000 µM): 0.14

Cell Line: LOU-NH91
- relative viability (Metformin + Luminespib; first compound 10 µM): 0.343
- relative viability (Metformin + Luminespib; first compound 31.62 µM): 0.404
- relative viability (Metformin + Luminespib; first compound 100 µM): 0.316
- relative viability (Metformin + Luminespib; first compound 316.23 µM): 0.344
- relative viability (Metformin + Luminespib; first compound 1000 µM): 0.376
- relative viability (Metformin + Dasatinib; first compound 10 µM): 0.576
- relative viability (Metformin + Dasatinib; first compound 31.62 µM): 0.491
- relative viability (Metformin + Dasatinib; first compound 100 µM): 0.498
- relative viability (Metformin + Dasatinib; first compound 316.23 µM): 0.538
- relative viability (Metformin + Dasatinib; first compound 1000 µM): 0.499

Cell Line: CAL-12T
- relative viability (Metformin + Luminespib; first compound 10 µM): 0.253
- relative viability (Metformin + Luminespib; first compound 31.62 µM): 0.775
- relative viability (Metformin + Luminespib; first compound 100 µM): 0.447
- relative viability (Metformin + Luminespib; first compound 316.23 µM): 0.699
- relative viability (Metformin + Luminespib; first compound 1000 µM): 0.417
- relative viability (Metformin + Dasatinib; first compound 10 µM): 0.471
- relative viability (Metformin + Dasatinib; first compound 31.62 µM): 0.58
- relative viability (Metformin + Dasatinib; first compound 100 µM): 0.479
- relative viability (Metformin + Dasatinib; first compound 316.23 µM): 0.357
- relative viability (Metformin + Dasatinib; first compound 1000 µM): 0.515

Cell Line: BEN
- relative viability (Metformin + Luminespib; first compound 10 µM): 0.461
- relative viability (Metformin + Luminespib; first compound 31.62 µM): 0.475
- relative viability (Metformin + Luminespib; first compound 100 µM): 0.833
- relative viability (Metformin + Luminespib; first compound 316.23 µM): 0.361
- relative viability (Metformin + Luminespib; first compound 1000 µM): 0.705
- relative viability (Metformin + Dasatinib; first compound 10 µM): 0.421
- relative viability (Metformin + Dasatinib; first compound 31.62 µM): 0.409
- relative viability (Metformin + Dasatinib; first compound 100 µM): 0.34
- relative viability (Metformin + Dasatinib; first compound 316.23 µM): 0.281
- relative viability (Metformin + Dasatinib; first compound 1000 µM): 0.414

Cell Line: EMC-BAC-2
- relative viability (Metformin + Luminespib; first compound 10 µM): 1.23
- relative viability (Metformin + Luminespib; first compound 31.62 µM): 1.24
- relative viability (Metformin + Luminespib; first compound 100 µM): 1.21
- relative viability (Metformin + Luminespib; first compound 316.23 µM): 1.19
- relative viability (Metformin + Luminespib; first compound 1000 µM): 1.33
- relative viability (Metformin + Dasatinib; first compound 10 µM): 0.37
- relative viability (Metformin + Dasatinib; first compound 31.62 µM): 0.312
- relative viability (Metformin + Dasatinib; first compound 100 µM): 0.323
- relative viability (Metformin + Dasatinib; first compound 316.23 µM): 0.334
- relative viability (Metformin + Dasatinib; first compound 1000 µM): 0.395

— the supplement of paper PMC10307832
